The source of these data is US4049802A (Research Corporation, priority 1975, dated 1977).

In brackets after ≈: the same amount, converted by molar mass. Like-named read-outs stand apart in the source and are kept apart here.

A short description of test [1]: Minimum inhibitory concentration (growth at drug concentrations) and effect of para-aminobenzoic acid (PABA), Table II. The format is cell-based.
Test [2] has as its system Pseudomonas. The test can be described thus: Minimum inhibitory concentrations vs Pseudomonas, Table V. The format is cell-based.

`Nc1ccc(S(=O)(=O)Nc2ncccn2)cc1` [Sodium Sulfadiazine, sodium sulfadiazine]: the “Growth (minimum inhibitory concentration series)” value is “+” in test [1] (0.1 μ mole/ml drug); “+” in test [1] (0.4 μ mole/ml drug); “+” in test [1] (0.5 μ mole/ml drug); “+” in test [1] (0.6 μ mole/ml drug); “-” in test [1] (0.8 μ mole/ml drug); “-” in test [1] (1.0 μ mole/ml drug). Further, the “Growth (minimum inhibitory concentration series)” value in test [1] (2.0 μ mole/ml drug) was “-”. The “Growth, drug + PABA” value in test [1] (0.5 μ mole/ml drug + PABA 0.05), in test [1] (1.0 μ mole/ml drug + PABA 0.1), in test [1] (2.0 μ mole/ml drug + PABA 0.01), in test [1] (2.0 μ mole/ml drug + PABA 0.1) and in test [1] (2.0 μ mole/ml drug + PABA 0.2) was “+” throughout. In test [2] (listed as Na Sulfadiazine), the “Minimum Inhibitory Concentration vs Pseudomonas” value was 80 μM/L. Moreover, the “PAB to Block” value in test [2] (listed as Na Sulfadiazine) is listed as 1/200.
Regarding `CC(=O)[O-].CC(=O)[O-].[Zn+2]` [Zinc Acetate, zinc acetate], the “Growth (minimum inhibitory concentration series)” value in test [1] (0.05 μ mole/ml drug), in test [1] (0.1 μ mole/ml drug), in test [1] (0.5 μ mole/ml drug) and in test [1] (1.0 μ mole/ml drug) was “+” in each case.
Regarding `NCc1ccc(S(N)(=O)=O)cc1` [Sulfamylon], the “PAB to Block” value in test [2] is on record as “neg”. The MIC in test [2] (Pseudomonas, read-out: Minimum Inhibitory Concentration vs Pseudomonas) was 500 µM (≈ 93.1 µg/mL).
